Type in all cases: cell-based, murine and human
Common to all, as to details: GAL4-PPAR LBD chimera

One assay deals with T1, PPAR-alpha (UniProt Q07869).
T1 sequence (Q07869 1-468): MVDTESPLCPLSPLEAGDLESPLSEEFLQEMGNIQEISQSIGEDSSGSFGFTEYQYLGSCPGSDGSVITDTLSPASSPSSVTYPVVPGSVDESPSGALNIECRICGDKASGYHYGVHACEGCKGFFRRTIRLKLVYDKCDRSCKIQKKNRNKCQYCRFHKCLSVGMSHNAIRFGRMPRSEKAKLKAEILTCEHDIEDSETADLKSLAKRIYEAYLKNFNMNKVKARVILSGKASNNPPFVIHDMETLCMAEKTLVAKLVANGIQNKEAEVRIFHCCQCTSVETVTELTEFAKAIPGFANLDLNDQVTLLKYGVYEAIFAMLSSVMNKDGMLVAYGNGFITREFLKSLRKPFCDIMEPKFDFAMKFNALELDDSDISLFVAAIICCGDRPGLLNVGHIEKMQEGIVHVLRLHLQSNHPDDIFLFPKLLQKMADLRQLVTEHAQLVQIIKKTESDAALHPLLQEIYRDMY
Put plainly: PPAR-alpha transactivation assay (GAL4 chimera, luciferase reporter) in CV-1 cells. An outline of the steps: (§1)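 CV-1 cells transiently transfected with murine or human PPAR-alpha, -gamma or -delta ligand-binding domain fused to GAL4 DNA-binding domain plus a GAL4-site luciferase reporter. After replating in phenol-red-free DME with 5% delipidated calf serum, cells were exposed to compound 20-24 h; luciferase read-out gave EC50.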

Another assay addresses T2, PPAR-delta (UniProt Q03181).
T2 sequence (Q03181 1-441): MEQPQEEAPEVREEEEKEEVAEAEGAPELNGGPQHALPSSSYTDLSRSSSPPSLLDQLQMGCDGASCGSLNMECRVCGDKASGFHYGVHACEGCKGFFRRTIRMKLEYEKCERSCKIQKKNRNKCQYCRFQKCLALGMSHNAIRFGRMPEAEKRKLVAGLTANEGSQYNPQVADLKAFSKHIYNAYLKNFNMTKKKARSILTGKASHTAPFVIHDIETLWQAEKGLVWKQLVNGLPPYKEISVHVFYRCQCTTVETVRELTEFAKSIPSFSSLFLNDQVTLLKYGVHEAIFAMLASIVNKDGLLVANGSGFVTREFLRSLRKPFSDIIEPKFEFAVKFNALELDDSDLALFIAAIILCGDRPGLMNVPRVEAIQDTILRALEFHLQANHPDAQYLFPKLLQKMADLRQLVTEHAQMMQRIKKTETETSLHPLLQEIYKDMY
Put plainly: PPAR-delta transactivation assay (GAL4 chimera, luciferase reporter) in CV-1 cells. Summed up:
as §1

The next assay addresses T3, PPAR-gamma (UniProt P37231).
T3 sequence (P37231 1-505): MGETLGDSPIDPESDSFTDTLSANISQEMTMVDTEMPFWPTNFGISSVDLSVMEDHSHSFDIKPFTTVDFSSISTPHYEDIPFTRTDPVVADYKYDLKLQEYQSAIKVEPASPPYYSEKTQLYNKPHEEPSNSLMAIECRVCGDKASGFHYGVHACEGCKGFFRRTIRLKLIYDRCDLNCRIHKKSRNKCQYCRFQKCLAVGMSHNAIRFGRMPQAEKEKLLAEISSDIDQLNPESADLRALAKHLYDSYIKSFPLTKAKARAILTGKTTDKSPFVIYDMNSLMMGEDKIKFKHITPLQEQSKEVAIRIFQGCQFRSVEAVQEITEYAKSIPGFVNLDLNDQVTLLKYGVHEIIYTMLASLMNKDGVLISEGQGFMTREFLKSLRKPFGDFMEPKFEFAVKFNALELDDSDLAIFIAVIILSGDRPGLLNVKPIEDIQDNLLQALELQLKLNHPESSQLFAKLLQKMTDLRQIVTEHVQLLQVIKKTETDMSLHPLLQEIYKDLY
Description: PPAR-gamma transactivation assay (GAL4 chimera, luciferase reporter) in CV-1 cells. Summed up: as §1

`O=C(O)Cn1ccc2cc(Br)c(S(=O)(=O)N3CCN(c4ccc(C(F)(F)F)cn4)CC3)cc21` [Example 33, {5-Bromo-6-[4-(5-trifluoromethyl-pyridin-2-yl)-piperazine-1-sulfonyl]-indol-1-yl}-acetic acid]: the EC50 on PPAR-alpha was above 100 µM; at PPAR-delta, below 5 µM; on PPAR-gamma, 5 to 100 µM.
Turning to `O=C(O)Cn1ccc2ccc(S(=O)(=O)N3CCN(c4ccc(C(F)(F)F)cc4)CC3)cc21` [Example 34, {6-[4-(4-Trifluoromethyl-phenyl)-piperazine-1-sulfonyl]-indol-1-yl}-acetic acid], the EC50 at PPAR-alpha is above 100 µM; on PPAR-delta, below 5 µM; on PPAR-gamma it was 5 to 100 µM.
Consider `O=C(O)Cn1ccc2ccc(S(=O)(=O)N3CCN(c4ccc(C(F)(F)F)cn4)CC3)cc21` [Example 35, {6-[4-(5-trifluoromethyl-pyridin-2-yl)-piperazine-1-sulfonyl]-indol-1-yl}-acetic acid], for which the EC50 was 5 to 100 µM at PPAR-alpha, below 5 µM on PPAR-delta and 5 to 100 µM on PPAR-gamma.
On to `COc1ccc2c(CC(=O)O)csc2c1S(=O)(=O)N1CCN(c2ccc(C(F)(F)F)cn2)CC1` [Example 36, {6-Methoxy-7-[4-(5-trifluoromethyl-pyridin-2-yl)-piperazine-1-sulfonyl]-benzo[b]thiophen-3-yl}-acetic acid], for which the EC50 was above 100 µM on PPAR-alpha, above 100 µM at PPAR-delta and 5 to 100 µM on PPAR-gamma.
As for `O=C(O)Cc1csc2ccc(S(=O)(=O)N3CCN(c4ccc(C(F)(F)F)cn4)CC3)cc12` [Example 37, {5-[4-(5-Trifluoromethyl-pyridin-2-yl)piperazine-1-sulfonyl]-benzo[b]thiophen-3-yl}-acetic acid], the EC50 is 5 to 100 µM at PPAR-alpha, below 5 µM on PPAR-delta and below 5 µM on PPAR-gamma.
In the case of `CC1(C)CN(c2ccc(C(F)(F)F)cn2)CCN1S(=O)(=O)c1ccc2c(c1)C(C(=O)O)CC2` (stereo not drawn) [Example 38, 6-[2,2-Dimethyl-4-(5-trifluoromethyl-pyridin-2-yl)-piperazine-1-sulfonyl]-indan-1-carboxylic acid], the EC50 on PPAR-alpha, on PPAR-delta and at PPAR-gamma was below 5 µM in each case.
For the compound `COC(=O)[C@H]1CN(S(=O)(=O)c2ccc3c(c2)C(C(=O)O)CC3)CCN1c1ccc(C(F)(F)F)cn1` (stereo partly drawn) [Example 39, (R)-4-(3-Carboxy-indane-5-sulfonyl)-1-(5-trifluoromethyl-pyridin-2-yl)-piperazine-2-carboxylic acid methyl ester], the EC50 at PPAR-alpha, at PPAR-delta and on PPAR-gamma was below 5 µM each time.
On to `COC(=O)[C@@H]1CN(S(=O)(=O)c2ccc3c(c2)C(C(=O)O)CC3)CCN1c1ccc(C(F)(F)F)cn1` (stereo partly drawn) [Example 40, (S)-4-(3-carboxy-indane-5-sulfonyl)-1-(5-trifluoromethyl-pyridin-2-yl)-piperazine-2-carboxylic acid methyl ester], for which the EC50 on PPAR-alpha, at PPAR-delta and on PPAR-gamma was below 5 µM in each case.
For the compound `O=C(O)Cc1csc2ccc(S(=O)(=O)N3CCN(c4ccc(C(F)(F)F)cc4)CC3)cc12` [Example 41, {5-[4-(4-trifluoromethyl-phenyl)-piperazine-1-sulfonyl]-benzo[b]thiophen-3-yl}-acetic acid], the EC50 on PPAR-alpha was 5 to 100 µM; at PPAR-delta, below 5 µM; on PPAR-gamma, 5 to 100 µM.
Regarding `CC1CN(c2ccc(C(F)(F)F)cn2)CCN1S(=O)(=O)c1ccc2scc(CC(=O)O)c2c1` (stereo not drawn) [Example 42, {5-[2-methyl-4-(5-trifluoromethyl-pyridin-2-yl)-piperazine-1-sulfonyl]-benzo[b]thiophen-3-yl}-acetic acid], the EC50 is 5 to 100 µM at PPAR-alpha, below 5 µM at PPAR-delta and 5 to 100 µM at PPAR-gamma.
Regarding `C[C@@H]1CN(c2ccc(C(F)(F)F)cn2)C[C@H](C)N1S(=O)(=O)c1ccc2scc(CC(=O)O)c2c1` [Example 43, {5-[2,6-dimethyl-4-(5-trifluoromethyl-pyridin-2-yl)-piperazine 1-sulfonyl]-benzo[b]thiophen-3-yl}-acetic acid], the EC50 on PPAR-alpha was above 100 µM; at PPAR-delta it was below 5 µM; at PPAR-gamma, 5 to 100 µM.
The corresponding values for `CC1CN(S(=O)(=O)c2ccc3scc(CC(=O)O)c3c2)C(C)CN1c1ccc(C(F)(F)F)cn1` (stereo not drawn) [Example 44, {5-[2,5-dimethyl-4-(5-trifluoromethyl-pyridin-2-yl)-piperazine-1-sulfonyl]-benzo[b]thiophen-3-yl}-acetic acid] are above 100 µM, below 5 µM and 5 to 100 µM.
As for `O=C(O)C1CCc2ccc(S(=O)(=O)N3CCN(c4ccc(C(F)(F)F)cc4F)CC3)cc21` (stereo not drawn) [Example 45, 6-[4-(2-fluoro-4-trifluoromethyl-phenyl)-piperazine-1-sulfonyl]-indan-1-carboxylic acid], the EC50 on PPAR-alpha, on PPAR-delta and on PPAR-gamma was below 5 µM in each case.
Take `O=C(O)C1CCc2ccc(S(=O)(=O)N3CCN(c4ccc(Cl)c(Cl)c4)CC3)cc21` (stereo not drawn) [Example 46, 6-[4-(3,4-dichloro-phenyl)-piperazine-1-sulfonyl]-indan-1-carboxylic acid]: the EC50 at PPAR-alpha, on PPAR-delta and at PPAR-gamma was below 5 µM in each case.
As for `O=C(O)Cc1csc2ccc(S(=O)(=O)N3CCN(c4ccc(C(F)(F)F)cc4F)CC3)cc12` [Example 47, {5-[4-(2-fluoro-4-trifluoromethyl-phenyl)-piperazine-1-sulfonyl]-benzo[b]thiophen-3-yl}-acetic acid], the EC50 on PPAR-alpha, on PPAR-delta and on PPAR-gamma was below 5 µM each time.
`O=C(O)Cc1csc2ccc(S(=O)(=O)N3CCN(c4ccc(C(F)(F)F)c(F)c4)CC3)cc12` [Example 48, {5-[4-(3-fluoro-4-trifluoromethyl-phenyl)-piperazine-1-sulfonyl]-benzo[b]thiophen-3-yl}-acetic acid]: the EC50 on PPAR-alpha, at PPAR-delta and at PPAR-gamma was below 5 µM each time.
Take `C[C@@H]1CN(c2ccc(Cl)c(Cl)c2)C[C@H](C)N1S(=O)(=O)c1ccc2c(c1)C(C(=O)O)CC2` (stereo partly drawn) [Example 49, 6-[4-(3,4-dichloro-phenyl)-2,6-cis-dimethyl-piperazine-1-sulfonyl]-indan-1-carboxylic acid]: the values for the EC50 at PPAR-alpha, on PPAR-delta and on PPAR-gamma were below 5 µM, below 5 µM and 5 to 100 µM, respectively.
Take `C[C@@H]1CN(c2ccc(C(F)(F)F)c(Cl)c2)C[C@H](C)N1S(=O)(=O)c1ccc2c(c1)C(C(=O)O)CC2` (stereo partly drawn) [Example 50, 6-[4-(3-Chloro-4-trifluoromethyl-phenyl)-cis-2,6-dimethyl-piperazine-1-sulfonyl]-indan-1-carboxylic acid]: the EC50 on PPAR-alpha was 5 to 100 µM; at PPAR-delta, below 5 µM; on PPAR-gamma it was 5 to 100 µM.
As to `C[C@@H]1CN(c2ccc(OC(F)(F)F)cc2)C[C@H](C)N1S(=O)(=O)c1ccc2c(c1)C(C(=O)O)CC2` (stereo partly drawn) [Example 51, 6-[2,6-cis-dimethyl-4-(4-trifluoromethoxy-phenyl)-piperazine-1-sulfonyl]-indan-1-carboxylic acid], the EC50 on PPAR-alpha was below 5 µM; at PPAR-delta it was below 5 µM; at PPAR-gamma, 5 to 100 µM.
